In patent US11542240B2, “STK19 inhibitors for treatment of cancer” (TRUSTEES OF BOSTON UNIVERSITY, priority 2018, dated 2023):
Read-outs that look alike come from different tables or passages of the source.

Assays:
Assay in all cases: biochemical
Format in all cases: binding
[1] = molecular target: panel of 468 diverse kinases (Homo sapiens, UniProt Q9H4B4); details: PLK3; 1000 nM; read-out: Percent Control
[2] = molecular target: panel of 468 diverse kinases (Homo sapiens, UniProt P54760); details: EPHB4; 1000 nM; read-out: Percent Control
Sequence of panel of 468 diverse kinases (Homo sapiens, UniProt P54760) (P54760 16-987 limits assumed): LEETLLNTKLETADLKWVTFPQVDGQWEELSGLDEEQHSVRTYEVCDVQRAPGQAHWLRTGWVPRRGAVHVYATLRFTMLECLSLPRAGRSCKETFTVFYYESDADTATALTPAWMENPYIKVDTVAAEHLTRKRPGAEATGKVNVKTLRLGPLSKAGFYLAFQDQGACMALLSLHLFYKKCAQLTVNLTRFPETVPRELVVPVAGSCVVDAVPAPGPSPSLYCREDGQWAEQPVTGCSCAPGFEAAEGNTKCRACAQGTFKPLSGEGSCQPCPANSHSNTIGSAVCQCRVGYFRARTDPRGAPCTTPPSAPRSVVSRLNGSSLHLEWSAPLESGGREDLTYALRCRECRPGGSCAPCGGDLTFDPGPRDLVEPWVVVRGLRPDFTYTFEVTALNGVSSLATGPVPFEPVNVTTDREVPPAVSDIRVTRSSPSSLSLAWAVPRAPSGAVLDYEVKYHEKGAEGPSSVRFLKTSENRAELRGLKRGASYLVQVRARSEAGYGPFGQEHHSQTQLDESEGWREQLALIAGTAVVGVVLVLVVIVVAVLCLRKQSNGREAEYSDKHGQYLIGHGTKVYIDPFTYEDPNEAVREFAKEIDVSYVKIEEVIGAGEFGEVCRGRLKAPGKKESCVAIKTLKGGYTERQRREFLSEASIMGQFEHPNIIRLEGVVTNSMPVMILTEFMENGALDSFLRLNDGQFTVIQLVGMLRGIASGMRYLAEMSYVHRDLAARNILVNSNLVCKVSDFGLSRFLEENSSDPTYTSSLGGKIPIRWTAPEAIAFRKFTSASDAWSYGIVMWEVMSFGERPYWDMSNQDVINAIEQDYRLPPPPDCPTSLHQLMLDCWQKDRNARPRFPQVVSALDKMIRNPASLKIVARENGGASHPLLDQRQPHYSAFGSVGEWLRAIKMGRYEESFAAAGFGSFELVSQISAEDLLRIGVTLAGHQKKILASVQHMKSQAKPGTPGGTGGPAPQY

[3] = molecular target: panel of 468 diverse kinases (Homo sapiens, UniProt P00519); details: 1000 nM, read-out: Percent Control
[4] = molecular target: panel of 468 diverse kinases (Homo sapiens, UniProt O75676); details: 1000 nM, read-out: Percent Control
[5] = molecular target: panel of 468 diverse kinases (Homo sapiens, UniProt P42681); details: TXK; 1000 nM; read-out: Percent Control
[6] = molecular target: panel of 468 diverse kinases (Homo sapiens, UniProt P54762); details: EPHB1; 1000 nM; read-out: Percent Control
Sequence of panel of 468 diverse kinases (Homo sapiens, UniProt P54762) (P54762 18-984 limits assumed): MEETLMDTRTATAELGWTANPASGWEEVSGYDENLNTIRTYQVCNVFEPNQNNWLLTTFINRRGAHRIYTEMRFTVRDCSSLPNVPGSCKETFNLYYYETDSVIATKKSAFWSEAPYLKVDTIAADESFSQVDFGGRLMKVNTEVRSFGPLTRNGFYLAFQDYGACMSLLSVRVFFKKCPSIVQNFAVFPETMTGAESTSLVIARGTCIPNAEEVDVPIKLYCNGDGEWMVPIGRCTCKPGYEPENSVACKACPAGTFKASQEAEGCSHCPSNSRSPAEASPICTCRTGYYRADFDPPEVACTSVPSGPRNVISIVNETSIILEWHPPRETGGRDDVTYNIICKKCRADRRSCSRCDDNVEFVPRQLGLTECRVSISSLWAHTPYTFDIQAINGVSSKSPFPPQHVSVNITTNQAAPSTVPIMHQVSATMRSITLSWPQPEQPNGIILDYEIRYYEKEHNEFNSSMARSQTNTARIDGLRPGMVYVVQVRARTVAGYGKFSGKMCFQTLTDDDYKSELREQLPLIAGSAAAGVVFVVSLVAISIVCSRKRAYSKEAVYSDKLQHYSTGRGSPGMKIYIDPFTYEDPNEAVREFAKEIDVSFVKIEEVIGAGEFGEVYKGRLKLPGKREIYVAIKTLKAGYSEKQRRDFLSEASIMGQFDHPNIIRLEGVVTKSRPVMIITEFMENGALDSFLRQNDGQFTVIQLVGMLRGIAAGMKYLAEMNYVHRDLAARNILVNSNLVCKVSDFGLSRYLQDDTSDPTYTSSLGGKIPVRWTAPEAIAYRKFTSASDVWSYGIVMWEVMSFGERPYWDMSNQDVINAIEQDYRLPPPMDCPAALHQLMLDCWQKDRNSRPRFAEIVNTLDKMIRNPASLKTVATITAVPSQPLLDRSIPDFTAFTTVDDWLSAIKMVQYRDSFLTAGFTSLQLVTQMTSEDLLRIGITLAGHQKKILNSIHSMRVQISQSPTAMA

[7] = molecular target: panel of 468 diverse kinases (Homo sapiens, UniProt P00519, M351T); details: ABL1(M351T)-phosphorylated; 1000 nM; read-out: Percent Control
[8] = molecular target: panel of 468 diverse kinases (Homo sapiens, UniProt Q13153); details: PAK1; 1000 nM; read-out: Percent Control
Sequence of panel of 468 diverse kinases (Homo sapiens, UniProt Q13153) (Q13153 2-545 limits assumed): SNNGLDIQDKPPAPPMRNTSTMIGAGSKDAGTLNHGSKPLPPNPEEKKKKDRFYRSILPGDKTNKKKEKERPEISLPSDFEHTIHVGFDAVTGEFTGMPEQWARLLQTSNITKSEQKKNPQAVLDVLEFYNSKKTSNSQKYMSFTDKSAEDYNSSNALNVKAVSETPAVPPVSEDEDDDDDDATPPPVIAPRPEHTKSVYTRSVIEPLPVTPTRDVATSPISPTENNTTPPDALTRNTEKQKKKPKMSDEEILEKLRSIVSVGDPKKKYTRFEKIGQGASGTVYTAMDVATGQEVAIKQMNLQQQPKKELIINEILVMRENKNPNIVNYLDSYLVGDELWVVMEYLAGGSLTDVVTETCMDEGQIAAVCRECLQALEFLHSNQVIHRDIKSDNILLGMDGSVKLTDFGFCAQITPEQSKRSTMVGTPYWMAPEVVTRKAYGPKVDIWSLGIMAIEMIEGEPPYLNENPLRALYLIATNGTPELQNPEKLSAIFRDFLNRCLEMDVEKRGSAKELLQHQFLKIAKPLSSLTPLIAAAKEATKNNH

[9] = molecular target: panel of 468 diverse kinases (Homo sapiens, UniProt Q9BYP7); details: WNK3; 1000 nM; read-out: Percent Control
[10] = molecular target: panel of 468 diverse kinases (Homo sapiens, UniProt O96013); details: PAK4; 1000 nM; read-out: Percent Control
[11] = molecular target: panel of 468 diverse kinases (Homo sapiens, UniProt Q14680); details: MELK; 1000 nM; read-out: Percent Control
[12] = molecular target: panel of 468 diverse kinases (Homo sapiens, UniProt P36888, D835H); details: FLT3(D835H); 1000 nM; read-out: Percent Control
[13] = molecular target: panel of 468 diverse kinases (Homo sapiens, UniProt P53778); details: p38-gamma; 1000 nM; read-out: Percent Control
[14] = molecular target: panel of 468 diverse kinases (Homo sapiens, UniProt P04629); details: TRKA; 1000 nM; read-out: Percent Control
[15] = molecular target: panel of 468 diverse kinases (Homo sapiens, UniProt Q8NEB9); details: VPS34; 1000 nM; read-out: Percent Control
[16] = molecular target: panel of 468 diverse kinases (Homo sapiens, UniProt P36888, D835Y); details: FLT3(D835Y); 1000 nM; read-out: Percent Control
[17] = molecular target: panel of 468 diverse kinases (Homo sapiens, UniProt Q5S007); details: LRRK2; 1000 nM; read-out: Percent Control
[18] = molecular target: panel of 468 diverse kinases (Homo sapiens, UniProt P43405); details: SYK; 1000 nM; read-out: Percent Control
[19] = molecular target: panel of 468 diverse kinases (Homo sapiens, UniProt P00519, H396P); details: 1000 nM, read-out: Percent Control
[20] = molecular target: panel of 468 diverse kinases (Homo sapiens, UniProt P09769); details: FGR; 1000 nM; read-out: Percent Control
[21] = molecular target: panel of 468 diverse kinases (Homo sapiens, UniProt O43283); details: LZK; 1000 nM; read-out: Percent Control
[22] = molecular target: panel of 468 diverse kinases (Homo sapiens, UniProt P27361); details: ERK1; 1000 nM; read-out: Percent Control
[23] = molecular target: panel of 468 diverse kinases (Homo sapiens, UniProt Q9Y3S1); details: WNK2; 1000 nM; read-out: Percent Control
[24] = molecular target: panel of 468 diverse kinases (Homo sapiens, UniProt P24941); details: CDK2; 1000 nM; read-out: Percent Control
[25] = molecular target: panel of 468 diverse kinases (Homo sapiens, UniProt Q15303); details: ERBB4; 1000 nM; read-out: Percent Control
Sequence of panel of 468 diverse kinases (Homo sapiens, UniProt Q15303) (Q15303 26-1308 limits assumed): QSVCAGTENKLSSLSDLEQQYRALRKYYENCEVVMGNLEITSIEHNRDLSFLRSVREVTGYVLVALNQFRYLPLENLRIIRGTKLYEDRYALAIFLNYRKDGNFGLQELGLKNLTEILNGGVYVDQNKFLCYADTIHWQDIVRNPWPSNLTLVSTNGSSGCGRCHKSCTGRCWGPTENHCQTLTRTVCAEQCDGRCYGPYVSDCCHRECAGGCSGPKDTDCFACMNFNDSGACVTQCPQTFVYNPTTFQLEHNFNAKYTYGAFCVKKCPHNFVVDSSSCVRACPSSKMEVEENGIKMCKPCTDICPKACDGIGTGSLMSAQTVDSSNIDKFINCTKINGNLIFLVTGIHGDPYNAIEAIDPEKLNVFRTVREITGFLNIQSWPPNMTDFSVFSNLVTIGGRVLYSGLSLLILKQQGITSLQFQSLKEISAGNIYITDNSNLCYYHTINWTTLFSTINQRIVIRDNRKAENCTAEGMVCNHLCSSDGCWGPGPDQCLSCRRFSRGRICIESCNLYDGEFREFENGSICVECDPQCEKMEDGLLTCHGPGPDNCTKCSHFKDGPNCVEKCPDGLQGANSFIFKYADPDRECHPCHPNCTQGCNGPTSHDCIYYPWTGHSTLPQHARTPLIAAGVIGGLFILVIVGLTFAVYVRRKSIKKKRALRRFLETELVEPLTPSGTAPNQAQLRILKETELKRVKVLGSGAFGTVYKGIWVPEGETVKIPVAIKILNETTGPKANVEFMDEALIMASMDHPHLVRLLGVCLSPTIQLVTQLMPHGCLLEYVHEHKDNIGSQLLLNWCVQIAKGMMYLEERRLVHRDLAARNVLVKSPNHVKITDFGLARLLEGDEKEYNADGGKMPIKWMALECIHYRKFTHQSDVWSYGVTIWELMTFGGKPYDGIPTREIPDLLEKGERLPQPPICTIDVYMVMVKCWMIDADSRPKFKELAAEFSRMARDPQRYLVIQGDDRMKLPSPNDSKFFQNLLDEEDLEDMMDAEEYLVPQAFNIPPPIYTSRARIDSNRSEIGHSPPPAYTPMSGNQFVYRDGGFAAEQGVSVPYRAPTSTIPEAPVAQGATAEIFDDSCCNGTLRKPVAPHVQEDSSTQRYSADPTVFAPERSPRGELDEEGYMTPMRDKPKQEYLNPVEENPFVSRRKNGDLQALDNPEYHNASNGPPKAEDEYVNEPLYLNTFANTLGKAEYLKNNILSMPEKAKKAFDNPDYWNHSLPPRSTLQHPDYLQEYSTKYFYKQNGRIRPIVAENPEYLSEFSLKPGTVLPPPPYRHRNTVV

[26] = molecular target: panel of 468 diverse kinases (Homo sapiens, UniProt Q7L7X3); details: TAOK1; 1000 nM; read-out: Percent Control
[27] = molecular target: panel of 468 diverse kinases (Homo sapiens, UniProt P35590); details: TIE1; 1000 nM; read-out: Percent Control
Sequence of panel of 468 diverse kinases (Homo sapiens, UniProt P35590) (P35590 22-1138 limits assumed): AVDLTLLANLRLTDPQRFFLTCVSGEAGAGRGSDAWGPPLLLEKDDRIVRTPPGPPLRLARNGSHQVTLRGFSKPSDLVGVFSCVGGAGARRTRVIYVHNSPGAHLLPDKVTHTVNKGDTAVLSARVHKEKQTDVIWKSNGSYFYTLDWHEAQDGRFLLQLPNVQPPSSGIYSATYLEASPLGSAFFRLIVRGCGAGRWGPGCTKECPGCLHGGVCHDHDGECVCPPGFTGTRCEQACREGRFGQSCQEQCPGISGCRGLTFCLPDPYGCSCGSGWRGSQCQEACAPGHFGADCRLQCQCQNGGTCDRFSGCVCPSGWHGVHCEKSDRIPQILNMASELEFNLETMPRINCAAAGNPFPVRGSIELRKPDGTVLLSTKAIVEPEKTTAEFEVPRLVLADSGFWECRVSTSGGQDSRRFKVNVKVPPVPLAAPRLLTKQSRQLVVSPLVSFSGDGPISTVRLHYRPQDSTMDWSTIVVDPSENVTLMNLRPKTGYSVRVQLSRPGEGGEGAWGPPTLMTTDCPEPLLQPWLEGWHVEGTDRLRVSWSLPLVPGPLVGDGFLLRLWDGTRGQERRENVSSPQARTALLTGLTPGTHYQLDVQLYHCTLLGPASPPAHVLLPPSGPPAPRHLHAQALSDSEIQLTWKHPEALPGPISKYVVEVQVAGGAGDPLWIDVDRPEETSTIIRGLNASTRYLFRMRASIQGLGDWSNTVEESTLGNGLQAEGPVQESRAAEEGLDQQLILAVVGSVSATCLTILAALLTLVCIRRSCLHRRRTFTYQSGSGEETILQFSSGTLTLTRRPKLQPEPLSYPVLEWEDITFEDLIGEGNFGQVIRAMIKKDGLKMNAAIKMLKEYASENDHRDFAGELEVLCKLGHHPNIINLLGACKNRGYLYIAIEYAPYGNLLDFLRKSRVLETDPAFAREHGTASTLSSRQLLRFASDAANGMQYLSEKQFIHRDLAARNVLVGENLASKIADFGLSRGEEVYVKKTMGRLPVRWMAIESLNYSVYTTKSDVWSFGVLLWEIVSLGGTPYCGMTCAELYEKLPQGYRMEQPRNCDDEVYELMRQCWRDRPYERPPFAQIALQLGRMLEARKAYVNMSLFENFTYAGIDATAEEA

[28] = molecular target: panel of 468 diverse kinases (Homo sapiens, UniProt P42336, M1043I); details: PIK3CA(M1043I); 1000 nM; read-out: Percent Control
[29] = molecular target: panel of 468 diverse kinases (Homo sapiens, UniProt P57078); details: RIPK4; 1000 nM; read-out: Percent Control
[30] = molecular target: panel of 468 diverse kinases (Homo sapiens, UniProt P49674); details: CSNK1E; 1000 nM; read-out: Percent Control

COc1cc2nc(NC3CC3)nc(NC3CCN(C(C)C)CC3)c2cc1OC [Formula IV]
remaining activity at 1 µM [1]: 68%
remaining activity at 1 µM [2]: 100%
remaining activity at 1 µM ([3]; ABL1-nonphosphorylated): 91%
remaining activity at 1 µM ([3]; ABL1-phosphorylated): 88%
remaining activity at 1 µM ([4]; RPS6KA4(Kin.Dom.1-N-terminal)): 90%
remaining activity at 1 µM ([4]; RPS6KA4(Kin.Dom.2-C-terminal)): 46%
remaining activity at 1 µM [5]: 98%
remaining activity at 1 µM [6]: 89%
remaining activity at 1 µM [7]: 59%
remaining activity at 1 µM [8]: 87%
remaining activity at 1 µM [9]: 69%
remaining activity at 1 µM [10]: 96%
remaining activity at 1 µM [11]: 85%
remaining activity at 1 µM [12]: 81%
remaining activity at 1 µM [13]: 78%
remaining activity at 1 µM [14]: 67%
remaining activity at 1 µM [15]: 51%
remaining activity at 1 µM [16]: 88%
remaining activity at 1 µM [17]: 71%
remaining activity at 1 µM [18]: 99%
remaining activity at 1 µM ([19]; ABL1 (H396P)-nonphosphorylated): 69%
remaining activity at 1 µM ([19]; ABL1(H396P)-phosphorylated): 68%
remaining activity at 1 µM [20]: 100%
remaining activity at 1 µM [21]: 45%
remaining activity at 1 µM [22]: 98%
remaining activity at 1 µM [23]: 58%
remaining activity at 1 µM [24]: 91%
remaining activity at 1 µM [25]: 96%
remaining activity at 1 µM [26]: 100%
remaining activity at 1 µM [27]: 97%
remaining activity at 1 µM [28]: 83%
remaining activity at 1 µM [29]: 99%
remaining activity at 1 µM [30]: 100%
